A short description of data set [1]: ESR OH radical assay, Fe^2+/H2O2 Fenton system. As to conditions: N/A = minimal radical production exceeds 10%.
The subject of data set [2] is cortical neurons. In words: Neuroprotection of cultured cortical neurons exposed to FeSO4 or FeSO4/H2O2. Type of data set: cell-based. The protocol:
FIGS. 10A-10B show the neuroprotective effect of ATP-γ-S and GDP-β-S (0.2-200 μM, t=24 h) as evaluated by MTT production in cortical neurons exposed for 24 h to either FeSO4 at final concentration of 3 μM (10A); or both FeSO4 (3 μM) and H2O2 (100 μM) (10B). The results shown are the mean±SEM of three independent experiments in quadruplicate.
Cultured cortical neurons in 96-well plates were treated with different concentrations of FeSO4, or hydrogen peroxide and FeSO4, for 24 h at 37° C. Following exposure to various insults, the cells were treated with ATP-γ-S and GDP-β-S as described. Cells were subsequently incubated for a further 18-24 h as indicated before being assessed for viability measures. Neurons were treated with ATP-γ-S and GDP-β-S at three concentrations ([…]) simultaneously with 1.5, 3 or 6 μM FeSO4 for 24 h. Following 24 h incubation in the presence of both FeSO4 and ATP-γ-S and GDP-β-S cell viability measures were assessed by XTT assay. All experiments were performed in triplicate.
FeSO4 induced a concentration-dependent decrease in cell viability as assessed by XTT assay and morphological assessment following 24 h of exposure (FIG. 9). The neuroprotective effect of ATP-γ-S and GDP-β-S (due to iron chelation) was evaluated in cortical neurons exposed to FeSO4 for 24 h (FIG. 10).

Data set [3] in a line: Stability in human blood serum. Type of data set: in vitro ADME.
Data set [4] deals with PC12 cells. In words: Toxicity at PC12 cells (MTT assay). Type of data set: cell-based. The protocol:
The results shown are the mean±S.D of three independent experiments in triplicate.
In this study, the toxicity of APCPP-γ-S, at 1-1000 μM, at PC12 cells was tested by MTT assay. […] At 1000 μM, 75% of the cells were still viable.
In general terms: Tetrazolium assays rely on reduction of a dye to a coloured formazan, in cell work by metabolically active cells.

For data set [5], the target named is T1, Aβ40-Cu^+ complex (Homo sapiens, UniProt P05067).
T1 construct: purchased GL-Biochem (Shanghai)
T1 sequence (P05067 672-711, one chain of several): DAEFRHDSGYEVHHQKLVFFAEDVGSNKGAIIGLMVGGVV
In words: Re-solubilization of Aβ40-Cu^+ aggregates monitored by 1H-NMR. The conditions noted are these: 6 eq, pD 7.8. Here is the method:
^1H-NMR spectrum of 0.25 mM Aβ40 (concentration determined by UV) in 10 mM TRIS-d11 (500 μl, pD 11) was measured at 278 K. The pD was adjusted to 7.8 by the addition of 0.1 N DCl (33 μl), and ^1H-NMR spectrum was measured (700 MHz, 80 scans), as well as after each of the following additions: (A) 8.3 mM Cu^+ (15 μl, 1 eq); (B) 6 mM compound 7 (21 μl, 1 eq); (C) 6 mM compound 7 (42 μL, 3 eq); (D) of 6 mM APCPP-γ-S (62.4 μl, 6 eq); (E) of 6 mM APCPP-γ-S (62.4 μl, 9 eq). At the end of the titration, the acetonitrile concentration was 2% (v/v) in 735.8 μl, pD 8.4.
APCPP-γ-S, the most promising chelator identified here, was used also to resolubilize Aβ40-Cu^+ aggregates. This process was monitored by ^1H-NMR similar to that described above for Aβ28. First, the ^1H-NMR spectrum of 0.25 mM Aβ40 monomer at 278 K, pD 11, was measured (FIG. 7a), after adjustment of Aβ40 solution pD to 7.8 the signals shifted and broadened (FIG. 7b). Upon addition of 1 eq 8.3 mM Cu(CH3CN)4PF6 the signals dramatically further broadened (FIG. 7c).

Data set [6] concerns the target T2, TNAP (Homo sapiens, UniProt P05186).
T2 sequence (P05186 18-501): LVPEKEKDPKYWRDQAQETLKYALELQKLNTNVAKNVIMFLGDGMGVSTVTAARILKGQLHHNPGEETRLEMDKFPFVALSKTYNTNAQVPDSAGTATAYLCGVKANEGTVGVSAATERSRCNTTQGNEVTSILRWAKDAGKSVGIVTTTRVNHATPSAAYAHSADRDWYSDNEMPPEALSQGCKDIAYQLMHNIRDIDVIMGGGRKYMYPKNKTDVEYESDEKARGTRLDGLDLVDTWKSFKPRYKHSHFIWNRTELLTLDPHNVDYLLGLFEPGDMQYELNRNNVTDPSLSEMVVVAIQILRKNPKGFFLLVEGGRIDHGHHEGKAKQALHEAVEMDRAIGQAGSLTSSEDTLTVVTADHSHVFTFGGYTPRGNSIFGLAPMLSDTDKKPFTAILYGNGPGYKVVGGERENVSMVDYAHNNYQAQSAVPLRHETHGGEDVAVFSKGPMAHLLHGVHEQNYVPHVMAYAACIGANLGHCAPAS
In words: Hydrolysis by TNAP. Type of data set: in vitro ADME. The conditions noted are these: 1 h. The text has this:
The metabolic stability of APPCCl2P-α-S (isomer A) and APCPP-γ-S was further proven by their resistance to enzymatic hydrolysis by TNAP.

Data set [7] deals with human chondrocyte cells. In words: NTMP hydrolysis in human chondrocyte cells. Type of data set: cell-based. As to conditions: 0.1 mM, NTMP 0.1 mM, OD 405 nm. The protocol: (§1) Increased chondrocyte PPi production, and PPi-generating NPP1 activity are linked with CPPD crystal deposition disease, common in aging and osteoarthritic cartilage. […] Its hydrolysis by endogenous enzyme (NPP1) from matrix vesicles (MVs), human chondrocytes or cartilage pieces results in elevated OD at 405 nm.
In order to test the ability of the NPP1 inhibitor to inhibit NTMP hydrolysis in human chondrocyte cells, human chondrocytes 1.5×10^4 per well were seeded in 96 well plate in 100 μl DMEM/10% fetal calf serum (FCS). One day before the experiment, the medium was changed to DMEM only (w/o phenol red). Human chondrocytes were incubated with 0.1 mM NTMP in TES, pH 7.37, in the presence or absence of 0.1 mM of the NPP1 inhibitor for 0, 15′, 30′, 1, 2, 4, 6, 18 hours at 37° C. At each time point the reaction was read at 405 nm.

Data set [8] has as its system cartilage pieces. In words: NTMP hydrolysis in cartilage pieces. As to conditions: 0.1 mM, NTMP 0.1 mM, OD 405 nm. The arrangement: species or system human.
Excerpt: as §1
In order to test the ability of the NPP1 inhibitor to inhibit NTMP hydrolysis in cartilage pieces, 12 pieces of cartilage of a uniform diameter were weighed and placed in wells of a 96-well plate overnight in DMEM w/o phenol red with penicillin-streptomycin-glutamine (PSG). The pieces of cartilage were incubated with 0.1 mM NTMP in TES, pH 7.37, in the presence or absence of 0.1 mM of the NPP1 inhibitor for 0, 15′, 30′, 1, 2, 4, 6, 8 hours at 37° C. At each time point 200 μl were removed from each well and the reaction was read at 405 nm.

These results are taken from patent US20140378408A1, “NUCLEOSIDE 5'-PHOSPHOROTHIOATE ANALOGUES AND USES THEREOF” (BAR-ILAN UNIVERSITY, an Israeli University, priority 2012, published 2014).

Like-named read-outs stand apart in the source and are kept apart here.

As a reminder, the IC90 is the concentration at which the effect reaches the 90% level. Read a high IC90 as a need for much substance. The IC50 is the concentration that inhibits the measured activity by half. `Nc1ncnc2c1ncn2[C@@H]1O[C@H](COP(=O)(O)CP(=O)(O)OP(O)(O)=S)[C@@H](O)[C@H]1O` [APCPP-γ-S, adenosine 5′-[Pγ-thio]-α,β-methylenetriphosphate] registered an IC90 in data set [1] of 211 ± 7 µM. The IC50 in data set [2] (Cortical neurone, read-out: IC50 protection from damage caused by FeSO4) worked out at 0.04 µM. For the same molecule, in data set [3], the “stability in human blood serum” value is listed as “stable”. In data set [4] (1000 μM), the “reduction of cell viability” value came to 25% and the viable cells stood at 75%. Also, in data set [4] (24 h), the “not toxic up to (concentration)” value is listed as “up to 100 μM”. In data set [5], the “effect on Aβ40-Cu^+ 1H-NMR spectrum” value is recorded as “all signals reappeared”. For the same molecule, the “Hydrolysis by TNAP” value in data set [6] worked out at 2.5%.

With `Nc1ncnc2c1ncn2[C@@H]1O[C@H](COP(O)(=S)OP(=O)(O)C(Cl)(Cl)P(=O)(O)O)[C@@H](O)[C@H]1O` (single isomer, unassigned; isomer a) [APPCCl2P-α-S (isomer A), adenosine 5′-[Pα-thio]-β,γ-(dichloromethylene)triphosphate], the “Hydrolysis by TNAP” value in data set [6] was “fully stable”. Further, the “inhibition of NTMP hydrolysis in human chondrocyte cells” value in data set [7] was “inhibit the hydrolysis of NTMP”. In addition, the “inhibition of NTMP hydrolysis in cartilage pieces” value in data set [8] is given as “inhibit the hydrolysis of NTMP”.

Take `Nc1ncnc2c1ncn2[C@@H]1O[C@H](COP(O)(=S)OP(=O)(O)C(Cl)(Cl)P(=O)(O)O)[C@@H](O)[C@H]1O` (single isomer, unassigned) [APPCCl2P-α-S, adenosine 5′-[Pα-thio]-β,γ-(dichloromethylene)triphosphate]: the viable cells in data set [4] (100 μM) was found to be 100%; in data set [4] (1000 μM), 75%.

In data set [1], `Nc1ncnc2c1ncn2[C@@H]1O[C@H](COP(=O)(O)OP(O)(O)=S)[C@@H](O)[C@H]1O` [ADP-β-S, adenosine 5′-[β-thio]diphosphate, reference compound] yielded an IC90 of 210 ± 1 µM. For the same molecule, in data set [2] (Table 2, neuroprotection of primary neurons exposed to FeSO4, read-out: IC50), the IC50 was 1.2 ± 0.007 µM.
